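Dose response: 5 concentrations. Exposure: 48 h. Format: 96-well plates. Endpoint: linear interpolation; highest concentration if not reached. At the TGI there is no net growth.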
Columns and labels:
Assay in all cases: NCI-60 cell line screen, 48 h
TK-10 renal = system: TK-10 renal
U251 CNS = system: U251 CNS
PC-3 prostate = system: PC-3 prostate
SW-620 colon = system: SW-620 colon
CCRF-CEM leukemia = system: CCRF-CEM leukemia
HCT-116 colon = system: HCT-116 colon
A498 renal = system: A498 renal
T-47D breast = system: T-47D breast
SK-MEL-5 melanoma = system: SK-MEL-5 melanoma
786-0 renal = system: 786-0 renal
LOX IMVI melanoma = system: LOX IMVI melanoma
HCT-15 colon = system: HCT-15 colon
OVCAR-3 ovarian = system: OVCAR-3 ovarian
NCI-H226 lung = system: NCI-H226 lung

| Structure (SMILES) | TGI (TK-10 renal) [µM] | TGI (U251 CNS) [µM] | TGI (PC-3 prostate) [µM] | TGI (SW-620 colon) [µM] | TGI (CCRF-CEM leukemia) [µM] | TGI (HCT-116 colon) [µM] | TGI (A498 renal) [µM] | TGI (T-47D breast) [µM] | TGI (SK-MEL-5 melanoma) [µM] | TGI (786-0 renal) [µM] | TGI (LOX IMVI melanoma) [µM] | TGI (HCT-15 colon) [µM] | TGI (OVCAR-3 ovarian) [µM] | TGI (NCI-H226 lung) [µM] |
| --- | --- | --- | --- | --- | --- | --- | --- | --- | --- | --- | --- | --- | --- | --- |
| Cc1ncn(-c2ccccc2O)c1C | > 100 | > 100 | > 100 | > 100 | > 100 | > 100 | > 100 | > 100 | > 100 | > 100 | > 100 | > 100 | > 100 | > 100 |
| OC1NC2Nc3ccccc3NC2NC1O (stereo unspecified) | > 100 | > 100 | > 100 | > 100 | > 100 | > 100 | > 100 | > 100 | > 100 | > 100 | > 100 | > 100 | > 100 | > 100 |
| O=c1onc2n1-c1ccc(Cl)cc1C(=S)N1CSCC21 (stereo unspecified) | > 100 | 35.9 | > 100 | 47.7 | > 100 | 95.7 | 64 | > 100 | > 100 | > 100 | > 100 | 95.3 | > 100 | 83.1 |
| COc1ccc2c(c1)c1c3c(ccc4ncn2c43)N(CCO)CCN=1 | 2.23 | 1.09 | 0.464 | 3.64 | 0.305 | 0.214 | 0.382 | 1.42 | 0.403 | 1.06 | 0.468 | 0.611 | 0.648 | 0.522 |
| CN(O)C(=O)CCC(NC(=O)CCC(N)C(=O)O)C(=O)NCC(=O)O (stereo unspecified) | > 100 | > 100 | > 100 | > 100 | > 100 | > 100 | > 100 | > 100 | > 100 | > 100 | > 100 | > 100 | > 100 | > 100 |
| NC1=Nc2ccccc2Sc2nncn21 | > 100 | > 100 | > 100 | > 100 | > 100 | > 100 | > 100 | > 100 | > 100 | > 100 | > 100 | > 100 | > 100 | > 100 |
| COC(=O)C1=C(C)NC(=O)N2[C@@H](CCOCc3ccccc3)CC[C@@H]12 | > 50 | > 50 | > 50 | > 50 | > 50 |  | > 50 | 49.1 | > 50 | > 50 | > 50 | > 50 | > 50 | > 50 |
| S=C(NCc1ccccc1)Nc1sc(=NCc2ccccc2)nc2sc3c(c12)CCN(N1CCc2c(sc4nc(=NCc5ccccc5)sc(NC(=S)NCc5ccccc5)c24)C1)C3 | > 90.3 | > 47.5 | > 49.8 | > 72.5 | > 70.2 | > 54.2 | > 67.6 | > 61.3 | > 100 | > 40.9 | > 100 | > 66.7 | > 100 | 99.7 |

Reference: PubChem BioAssay (NCI)
